Data: ChEMBL document CHEMBL1132866, “Synthesis of glycolipid analogues that disrupt binding of HIV-1 gp120 to galactosylceramide” (Bioorg Med Chem Lett, 2000)

Target: Envelope glycoprotein gp160 (Human immunodeficiency virus type 1 group M subtype B (isolate HXB2)(HIV-1), UniProt P04578)
Assay: Binding affinity towards HIV glycoprotein gp120

Kd: 11.4 nM
SMILES: CCCCCCCCCCCCC/C=C/[C@@H](O)[C@H](CO[C@@H]1O[C@@H](CO)[C@H](O)[C@H](O)[C@@H]1O)NC(=O)OCCCCCCCCCCCCCCCCCCCCCCC
